14 molecules from ChEMBL document CHEMBL3044791, “Synthesis and Structure-Activity Relationships of Vasicine Analogues as Bronchodilatory Agents” (2005) can be followed below.

Assay [1] has as its system Tissue. As to the kind of experiment: Bronchodilatory activity in histamine-precontracted Cavia porcellus (guinea pig) trachea at 30 ug/ml. The class given is functional.
Assay [2] relates to Tissue. As to the kind of experiment: Bronchodilatory activity in acetylcholine-precontracted Cavia porcellus (guinea pig) trachea at 30 ug/ml. The class given is functional.

Turning to `O=c1c2ccccc2nc2n1CCCC2`, the Activity in assay [1] was found to be 40%.

Turning to `O=c1c2ccccc2nc2n1CCCCC2`, the Activity in assay [2] and in assay [1] was 100% throughout.

As to `O=c1c2cc3c(cc2nc2n1CCCCC2)OCO3`, the Activity in assay [2] and in assay [1] was 100% each time.

Molecule `Cc1nc2ccccc2c(=O)n1-c1ccc(F)cc1` displayed an Activity in assay [1] of 80%.

Regarding `CCc1nc2ccccc2c(=O)n1-c1ccccc1`, in assay [1], the Activity amounted to 100%.

For the molecule `O=C1CC(c2ccccc2)N=C2CCCCN12` (centres undefined), in assay [1], the Activity is 20%.

For `O=C1CC(c2ccccc2)N=C2CCCCCN12` (centres undefined), the Activity is reported as 30% in assay [2] and 50% in assay [1].

In the case of `Cc1nc2ccccc2c(=O)n1-c1ccccc1`, the Activity in assay [1] was found to be 100%.

In the case of `CCCc1nc2ccccc2c(=O)n1-c1ccccc1`, in assay [1], the Activity was 50%.

Turning to `CCCc1nc2ccccc2c(=O)n1-c1ccc(F)cc1`, the Activity in assay [1] is reported as 10%.

As to `O=c1c2cc3c(cc2nc2n1CCCC2)OCO3`, the Activity was found to be 40% in assay [2] and 50% in assay [1].

Molecule `CCc1nc2ccccc2c(=O)n1-c1ccc(F)cc1` yielded an Activity in assay [1] of 20%.

In turn, `O=c1c2ccccc2nc2n1CCC2` [DEOXYVASICINONE] registered an Activity in assay [1] of 20%.

`Cn1c(=O)c2c(ncn2CCO)n(C)c1=O` [ETOFYLLINE]: the Activity in assay [2] and in assay [1] was 40% each time.
